From PubChem BioAssay AID1259407 (Chemical Carcinogenesis Research Information System (CCRIS), 2018)
The source made the active and inactive calls. The rule behind the calls is not given here.

System: CCRIS mutagenicity, Ames/micronucleus/aberration tests
Assay: CCRIS mutagenicity studies
[1] = Test System: AMES SALMONELLA TYPHIMURIUM, Strain/Indicator: TA98, Metabolic Activation: RAT, LIVER, S-9, AROCLOR 1254, Method: STANDARD PLATE
[2] = Test System: AMES SALMONELLA TYPHIMURIUM, Strain/Indicator: TA100, Metabolic Activation: RAT, LIVER, S-9, AROCLOR 1254, Method: STANDARD PLATE
[3] = Test System: AMES SALMONELLA TYPHIMURIUM, Strain/Indicator: TA1537, Metabolic Activation: NONE, Method: STANDARD PLATE
[4] = Test System: AMES SALMONELLA TYPHIMURIUM, Strain/Indicator: TA1537, Metabolic Activation: RAT, LIVER, S-9, AROCLOR 1254, Method: STANDARD PLATE
[5] = Test System: AMES SALMONELLA TYPHIMURIUM, Strain/Indicator: TA98, Metabolic Activation: NONE, Method: PREINCUBATION
[6] = Test System: AMES SALMONELLA TYPHIMURIUM, Strain/Indicator: TA98, Metabolic Activation: NONE, Method: STANDARD PLATE
[7] = Test System: AMES SALMONELLA TYPHIMURIUM, Strain/Indicator: TA100, Metabolic Activation: NONE, Method: STANDARD PLATE
[8] = Test System: AMES SALMONELLA TYPHIMURIUM, Strain/Indicator: TA102, Metabolic Activation: NONE, Method: STANDARD PLATE
[9] = Test System: AMES SALMONELLA TYPHIMURIUM, Strain/Indicator: TA102, Metabolic Activation: RAT, LIVER, S-9, AROCLOR 1254, Method: STANDARD PLATE
[10] = Test System: AMES SALMONELLA TYPHIMURIUM, Strain/Indicator: TA100, Metabolic Activation: NONE, Method: PREINCUBATION

## Cc1cc(O)c2c(c1)C(=O)C13C(=C2O)C(=O)C2C(O)C1C1C(O)C3C(=O)C3=C(O)c4c(O)cc(C)cc4C(=O)C321 (stereo not drawn)
[1]
  mutagenic call: inactive; negative
[2]
  mutagenic call: inactive; negative
[3]
  mutagenic call: inactive; negative
[4]
  mutagenic call: inactive; negative

## COC(=O)C(=Cc1ccc([N+](=O)[O-])o1)[N+](=O)[O-]
[5]
  mutagenic call: active; positive

## Cc1nc2ccccc2s1
Test System: AMES SALMONELLA TYPHIMURIUM, Strain/Indicator: TA98, Metabolic Activation: HAMSTER, LIVER, S-9, AROCLOR 1254, Method: STANDARD PLATE
  mutagenic call: inactive; negative
[6]
  mutagenic call: inactive; negative
[1]
  mutagenic call: inactive; negative
Test System: AMES SALMONELLA TYPHIMURIUM, Strain/Indicator: TA100, Metabolic Activation: HAMSTER, LIVER, S-9, AROCLOR 1254, Method: STANDARD PLATE
  mutagenic call: inactive; negative
[7]
  mutagenic call: inactive; negative
[2]
  mutagenic call: inactive; negative
Test System: AMES SALMONELLA TYPHIMURIUM, Strain/Indicator: TA102, Metabolic Activation: HAMSTER, LIVER, S-9, AROCLOR 1254, Method: STANDARD PLATE
  mutagenic call: inactive; negative
[8]
  mutagenic call: inactive; negative
[9]
  mutagenic call: inactive; negative
Test System: AMES SALMONELLA TYPHIMURIUM, Strain/Indicator: TA1535, Metabolic Activation: HAMSTER, LIVER, S-9, AROCLOR 1254, Method: STANDARD PLATE
  mutagenic call: inactive; negative
Test System: AMES SALMONELLA TYPHIMURIUM, Strain/Indicator: TA1535, Metabolic Activation: NONE, Method: STANDARD PLATE
  mutagenic call: inactive; negative
Test System: AMES SALMONELLA TYPHIMURIUM, Strain/Indicator: TA1535, Metabolic Activation: RAT, LIVER, S-9, AROCLOR 1254, Method: STANDARD PLATE
  mutagenic call: inactive; negative
Test System: AMES SALMONELLA TYPHIMURIUM, Strain/Indicator: TA1537, Metabolic Activation: HAMSTER, LIVER, S-9, AROCLOR 1254, Method: STANDARD PLATE
  mutagenic call: inactive; negative
[3]
  mutagenic call: inactive; negative
[4]
  mutagenic call: inactive; negative
Test System: Mouse lymphoma, Strain/Indicator: L5178Y (tk+/tk-), Metabolic Activation: None, Method: Suspension/plate
  mutagenic call: active; positive
Test System: Mouse lymphoma, Strain/Indicator: L5178Y (tk+/tk-), Metabolic Activation: Rat, Liver, S-9, Aroclor 1254, Method: Suspension/plate
  mutagenic call: inactive; negative

## O[C@H]1[C@@H]2O[C@@H]2c2c(ccc3cc4ccc5ccccc5c4nc23)[C@@H]1O
[5]
  mutagenic call: active; positive
[10]
  mutagenic call: active; positive
Test System: CHINESE HAMSTER V-79, Strain/Indicator: V-79/8-AZAGUANINE, Metabolic Activation: NONE, Method: STANDARD PLATE
  mutagenic call: active; positive

## O=[N+]([O-])c1ccc2c3c4c(cccc4c4ccccc4c13)[C@H](O)[C@H]2O
Test System: AMES SALMONELLA TYPHIMURIUM, Strain/Indicator: TA98(1,8-DNP6), Metabolic Activation: NONE, Method: STANDARD PLATE
  mutagenic call: active; positive
Test System: AMES SALMONELLA TYPHIMURIUM, Strain/Indicator: TA98(1,8-DNP6), Metabolic Activation: RAT, LIVER, S-9, AROCLOR 1254, Method: STANDARD PLATE
  mutagenic call: active; positive
Test System: AMES SALMONELLA TYPHIMURIUM, Strain/Indicator: TA98(NR), Metabolic Activation: NONE, Method: STANDARD PLATE
  mutagenic call: active; positive
Test System: AMES SALMONELLA TYPHIMURIUM, Strain/Indicator: TA98(NR), Metabolic Activation: RAT, LIVER, S-9, AROCLOR 1254, Method: STANDARD PLATE
  mutagenic call: active; positive
[6]
  mutagenic call: active; positive
[1]
  mutagenic call: active; positive

## COc1ccc2oc3cc(O)cc(O)c3c(=O)c2c1
Test System: AMES SALMONELLA TYPHIMURIUM, Strain/Indicator: TA97, Metabolic Activation: RAT, LIVER, S-9, PHENOBARBITAL AND 5,6-BENZOFLAVONE, Method: PREINCUBATION
  mutagenic call: active; positive
Test System: AMES SALMONELLA TYPHIMURIUM, Strain/Indicator: TA98, Metabolic Activation: RAT, LIVER, S-9, PHENOBARBITAL AND 5,6-BENZOFLAVONE, Method: PREINCUBATION
  mutagenic call: active; positive
Test System: AMES SALMONELLA TYPHIMURIUM, Strain/Indicator: TA100, Metabolic Activation: RAT, LIVER, S-9, PHENOBARBITAL AND 5,6-BENZOFLAVONE, Method: PREINCUBATION
  mutagenic call: active; positive
Test System: AMES SALMONELLA TYPHIMURIUM, Strain/Indicator: TA2637, Metabolic Activation: RAT, LIVER, S-9, PHENOBARBITAL AND 5,6-BENZOFLAVONE, Method: PREINCUBATION
  mutagenic call: active; positive

## O=C(O)/C=C(\CCl)C(Cl)Cl
[5]
  mutagenic call: inactive; negative
[10]
  mutagenic call: active; positive
Test System: AMES SALMONELLA TYPHIMURIUM, Strain/Indicator: TA104, Metabolic Activation: NONE, Method: PREINCUBATION
  mutagenic call: inactive; negative

## CNCCCC(=O)O
Test System: AMES SALMONELLA TYPHIMURIUM, Strain/Indicator: TA97, Metabolic Activation: NONE, Method: STANDARD PLATE
  mutagenic call: inactive; negative
Test System: AMES SALMONELLA TYPHIMURIUM, Strain/Indicator: TA97, Metabolic Activation: RAT, LIVER, S-9, AROCLOR 1254, Method: STANDARD PLATE
  mutagenic call: inactive; negative
[6]
  mutagenic call: inactive; negative
Test System: AMES SALMONELLA TYPHIMURIUM, Strain/Indicator: TA98, Metabolic Activation: RAT, LIVER, S-9, AROCLOR 1254, Method: PREINCUBATION
  mutagenic call: inactive; negative
[1]
  mutagenic call: inactive; negative
[7]
  mutagenic call: inactive; negative
[2]
  mutagenic call: inactive; negative
[8]
  mutagenic call: inactive; negative
[9]
  mutagenic call: inactive; negative
Test System: AMES SALMONELLA TYPHIMURIUM, Strain/Indicator: TA104, Metabolic Activation: NONE, Method: STANDARD PLATE
  mutagenic call: inactive; negative
Test System: AMES SALMONELLA TYPHIMURIUM, Strain/Indicator: TA104, Metabolic Activation: RAT, LIVER, S-9, AROCLOR 1254, Method: PREINCUBATION
  mutagenic call: inactive; negative
Test System: AMES SALMONELLA TYPHIMURIUM, Strain/Indicator: TA104, Metabolic Activation: RAT, LIVER, S-9, AROCLOR 1254, Method: STANDARD PLATE
  mutagenic call: inactive; negative
Test System: AMES SALMONELLA TYPHIMURIUM, Strain/Indicator: TA2638, Metabolic Activation: NONE, Method: STANDARD PLATE
  mutagenic call: inactive; negative
Test System: AMES SALMONELLA TYPHIMURIUM, Strain/Indicator: TA2638, Metabolic Activation: RAT, LIVER, S-9, AROCLOR 1254, Method: STANDARD PLATE
  mutagenic call: inactive; negative
Test System: AMES SALMONELLA TYPHIMURIUM, Strain/Indicator: UTH8413, Metabolic Activation: NONE, Method: STANDARD PLATE
  mutagenic call: inactive; negative
Test System: AMES SALMONELLA TYPHIMURIUM, Strain/Indicator: UTH8413, Metabolic Activation: RAT, LIVER, S-9, AROCLOR 1254, Method: STANDARD PLATE
  mutagenic call: inactive; negative
Test System: AMES SALMONELLA TYPHIMURIUM, Strain/Indicator: UTH8414, Metabolic Activation: NONE, Method: STANDARD PLATE
  mutagenic call: inactive; negative
Test System: AMES SALMONELLA TYPHIMURIUM, Strain/Indicator: UTH8414, Metabolic Activation: RAT, LIVER, S-9, AROCLOR 1254, Method: STANDARD PLATE
  mutagenic call: inactive; negative

## CC(=O)Nc1cc2c(cc1OC(C)=O)-c1ccccc1C2
[1]
  mutagenic call: inactive; negative

## [O]=[U](=[O])=[O]
Test System: Human bronchial epithelial (BEP2D) cells, Metabolic Activation: None, Method: Morphological transformation
  mutagenic call: active; positive. depleted uranium transformed cell lines exhibited significant chromoso
